One compound from ChEMBL document CHEMBL5370560, “Isolation of Anti-SARS-CoV-2 Natural Products Extracted from Mentha canadensis and the Semi-synthesis of Antiviral Derivatives” (J Nat Prod, 2023) can be followed below.

This assay deals with SARS-CoV-2. Kind of assay: Antiviral activity against SARS-CoV-2 hCoV-19/Egypt/NRC-03/2020 infected in Vero E6 cells assessed as reduction in plaque formation pretreated with cells for 1 hr followed by viral infection for 1 hr with subsequent replacement of compound containing medium and measured after 3 to 4 days by crystal violet staining based analysis. As to conditions: Severe acute respiratory syndrome coronavirus 2, hCoV-19/Egypt/NRC-03/2020, Vero C1008. The class given is functional, organism-based.

Values after ≈ are worked out from the molar mass of the structure shown.

With `O=C(/C=C/c1ccc(O)c(O)c1)O[C@H](Cc1ccc(O)c(O)c1)C(=O)O` [ROSMARINIC ACID], the IC50 – broadly, the midpoint of a concentration-inhibition curve – is 0.0255 µg/mL (≈ 0.0707 µM).
